# Measured values as given in US9981976B2, “Piperidine substituted pyrazolo[1,5-A]pyrimidine derivatives with inhibitory activity on the replication of the respiratory syncytial virus (RSV)” (priority 2014, dated 2018).
# Assays:
# HeLa cells = test: Cytotoxicity in HeLa cells, ATP content (ATPlite kit); conditions: three days incubation, CC50 = 50% concentration for cytotoxicity
# Protocol: Black 384-well clear-bottom microtiter plates (Corning, Amsterdam, The Netherlands) were filled via acoustic drop ejection using the echo liquid handler (Labcyte, Sunnyvale, Calif.). 200 nL of compound stock solutions (100% DMSO) were transferred to the assay plates. 9 serial 4-fold dilutions of compound were made, creating per quadrant the same compound concentration. The assay was initiated by adding 10 μL of culture medium to each well (RPMI medium without phenol red, 10% FBS-heat inactivated, 0.04% gentamycin (50 mg/mL). All addition steps are done by using a multidrop dispenser (Thermo Scientific, Erembodegem, Belgium). Next, rgRSV224 virus (MOI=1) diluted in culture medium was added to the plates. rgRSV224 virus is an engineered virus that includes an additional GFP gene (Hallak L K, Spillmann D, Collins P L, Peeples M E. Glycosaminoglycan sulfation requirements for respiratory syncytial virus infection; Journal of virology (2000), 74(22), 10508-13) and was in-licensed from the NIH (Bethesda, Md., USA). Finally, 20 μL of a HeLa cell suspension (3,000 cells/well) were plated. Medium, virus- and mock-infected controls were included in each test. The wells contain 0.05% DMSO per volume. Cells were incubated at 37° C. in a 5% CO2 atmosphere. Three days post-virus exposure, viral replication was quantified by measuring GFP expression in the cells by an in house developed MSM laser microscope (Tibotec, Beerse, Belgium). The EC50 was defined as the 50% inhibitory concentration for GFP expression. In parallel, compounds were incubated for three days in a set of white 384-well microtiter plates (Corning) and the cytotoxicity of compounds in HeLa cells was determined by measuring the ATP content of the cells using the ATPlite kit (Perkin Elmer, Zaventem, Belgium) according to the manufacturer's instructions. The CC50 was defined as the 50% concentration for cytotoxicity.
# rgRSV224 virus = test: microbe, parasite or virus in culture; format: cell-based, respiratory syncytial virus (RSV); conditions: for EC50: human respiratory syncytial virus, HeLa, 72 h, read-out: RSV HELA pEC50, rgRSV224 virus (MOI=1), HeLa cells, GFP expression three days post-virus exposure (converted)
SMILES,SI TOX HELA (HeLa cells),"RSV HELA pEC50 (rgRSV224 virus; rgRSV224 virus (MOI=1), HeLa cells, GFP expression three days post-virus exposure)",EC50 (rgRSV224 virus) [µM]
"CS(=O)(=O)Nc1nc(N2CCCC[C@H]2c2cc3nc(N4CCC4)cc(N4CCOCC4)n3n2)c2cc(Cl)ccc2n1 [P33, (S)—N-(4-(2-(5-(azetidin-1-yl)-7-morpholinopyrazolo[1,5-a]-pyrimidin-2-yl)piperidin-1-yl)-6-chloroquinazolin-2-yl)methanesulfonamide]",4.2,7.88,–
"COC(=O)c1nc(N2CCCCC2c2cc3nc(N4CCC4)cc(N4CCOCC4)n3n2)c2c(C)cccc2n1 (stereo not drawn) [P67, methyl 4-(2-(5-(azetidin-1-yl)-7-morpholinopyrazolo[1,5-a]pyrimidin-2-yl)piperidin-1-yl)-5-methylquinazoline-2-carboxylate]",<4.3,–,0.126
"Cc1ccc2ncnc(N3CCCC[C@H]3c3cc4nc(N5CCC(N)C5)ccn4n3)c2c1 (stereo in doubt) [P51, (S)-1-(2-((S)-1-(6-methylquinazolin-4-yl)piperidin-2-yl)pyrazolo-[1,5-a]pyrimidin-5-yl)pyrrolidin-3-amine]",4.3,–,0.316
"Clc1ccc2ncnc(N3CCCCC3c3cc4nc(N5CCC5)cc(N5CCOCC5)n4n3)c2c1 (stereo not drawn) [P1, 4-(5-(azetidin-1-yl)-2-(1-(6-chloroquinazolin-4-yl)piperidin-2-yl)-pyrazolo[1,5-a]pyrimidin-7-yl)morpholine]",4.4,–,0.794
"Cc1cccc2ncnc(N3CCCCC3c3cc4nc(N5CCC5)cc(N5CCNCC5)n4n3)c12 (stereo not drawn) [P53, 4-(2-(5-(azetidin-1-yl)-7-(piperazin-1-yl)pyrazolo[1,5-a]pyrimidin-2-yl)piperidin-1-yl)-5-methylquinazoline]",4.6,–,0.0501
"Cc1nc(N2CCCCC2c2cc3nc(N4CCC4)cc(N4CCOCC4)n3n2)c2cc[nH]c2n1 (stereo not drawn) [P15, 4-(5-(azetidin-1-yl)-2-(1-(2-methyl-7H-pyrrolo[2,3-d]pyrimidin-4-yl)-piperidin-2-yl)pyrazolo[1,5-a]pyrimidin-7-yl)morpholine]",4.0,–,0.251
"COC(=O)Nc1nc(N2CCCCC2c2cc3nc(N4CCC4)cc(N4CCOCC4)n3n2)c2c(C)cccc2n1 (stereo not drawn) [P29, methyl (4-(2-(5-(azetidin-1-yl)-7-morpholinopyrazolo[1,5-a]-pyrimidin-2-yl)piperidin-1-yl)-5-methylquinazolin-2-yl)carbamate]",4.5,–,0.398
"Cc1cn2nc([C@H]3CCCCN3c3ncnc4cccc(C)c34)cc2nc1N1CC(O)C1 [P24, (R)-1-(6-methyl-2-(1-(5-methylquinazolin-4-yl)piperidin-2-yl)pyrazolo[1,5-a]-pyrimidin-5-yl)azetidin-3-ol]",<4.6,–,> 25.1
"CCc1ccc2ncnc(N3CCCCC3c3cc4nc(N5CCC5)cc(N5CCOCC5)n4n3)c2c1C (stereo not drawn) [P63, 4-(5-(azetidin-1-yl)-2-(1-(6-ethyl-5-methylquinazolin-4-yl)piperidin-2-yl)pyrazolo[1,5-a]pyrimidin-7-yl)morpholine]",4.4,–,0.398
"Cc1cccc2ncnc(N3CCCC[C@H]3c3cc4nc(N5CCC5)cc(N5CCOCC5)n4n3)c12 [P19, (S)-4-(5-(azetidin-1-yl)-2-(1-(5-methylquinazolin-4-yl)piperidin-2-yl)pyrazolo[1,5-a]pyrimidin-7-yl)morpholine]",<4.3,–,0.01
"Cc1cccc2nc(C(N)=O)nc(N3CCCCC3c3cc4nc(N5CCC5)cc(N5CCOCC5)n4n3)c12 (stereo not drawn) [P46, 4-(2-(5-(azetidin-1-yl)-7-morpholinopyrazolo[1,5-a]pyrimidin-2-yl)-piperidin-1-yl)-5-methylquinazoline-2-carboxamide]",4.3,–,0.316
"Cc1ccc2ncnc(N3CCCCC3c3cc4nc(N5CCC5)cc(N5CCOCC5)n4n3)c2c1C (stereo not drawn) [P64, 4-(5-(azetidin-1-yl)-2-(1-(5,6-dimethylquinazolin-4-yl)piperidin-2-yl)-pyrazolo[1,5-a]pyrimidin-7-yl)morpholine]",<4.6,–,0.0158
"Cc1ccc2ncnc(N3CCCCC3c3cc4nc(N5CCC5)cc(N5CCOCC5)n4n3)c2c1 (stereo not drawn) [P4, 4-(5-(azetidin-1-yl)-2-(1-(6-methylquinazolin-4-yl)piperidin-2-yl)-pyrazolo[1,5-a]pyrimidin-7-yl)morpholine]",<4,–,0.158
"Cc1ccc2nc(NS(C)(=O)=O)nc(N3CCCCC3c3cc4nc(N5CCC5)cc(N5CCOCC5)n4n3)c2c1 (stereo not drawn) [P6, N-(4-(2-(5-(azetidin-1-yl)-7-morpholinopyrazolo[1,5-a]pyrimidin-2-yl)piperidin-1-yl)-6-methylquinazolin-2-yl)methanesulfonamide]",<4.0,–,0.00501
"Cc1cccc2nc(-c3cnoc3)nc(N3CCCCC3c3cc4nc(N5CCC5)cc(N5CCOCC5)n4n3)c12 (stereo not drawn) [P72, 4-(5-(azetidin-1-yl)-2-(1-(2-(isoxazol-4-yl)-5-methylquinazolin-4-yl)-piperidin-2-yl)pyrazolo[1,5-a]pyrimidin-7-yl)morpholine]",4.5,–,0.0251
"Cc1cn2nc(C3CCCCN3c3ncnc4cccc(C)c34)cc2nc1N1CC(O)C1 (stereo not drawn) [P23, 1-(6-methyl-2-(1-(5-methylquinazolin-4-yl)piperidin-2-yl)pyrazolo-[1,5-a]pyrimidin-5-yl)azetidin-3-ol]",<4.6,–,0.0158
"Cc1cc(C)c2c(N3CCCCC3c3cc4nc(N5CCC5)cc(N5CCOCC5)n4n3)ncnc2c1 (stereo not drawn) [P59, 4-(5-(azetidin-1-yl)-2-(1-(5,7-dimethylquinazolin-4-yl)piperidin-2-yl)-pyrazolo[1,5-a]pyrimidin-7-yl)morpholine]",4.3,–,0.398
"CS(=O)(=O)Nc1nc(N2CCCCC2c2cc3nc(N4CCC4)cc(N4CCOCC4)n3n2)c2ccccc2n1 (stereo not drawn) [P10, N-(4-(2-(5-(azetidin-1-yl)-7-morpholinopyrazolo[1,5-a]pyrimidin-2-yl)piperidin-1-yl)quinazolin-2-yl)methanesulfonamide]",<4.3,–,0.631
"Cc1cccc2nc(NS(C)(=O)=O)nc(N3CCCCC3c3cc4nc(N5CCC5)cc(N5CCOCC5)n4n3)c12 (stereo not drawn) [P9, N-(4-(2-(5-(azetidin-1-yl)-7-morpholinopyrazolo[1,5-a]pyrimidin-2-yl)piperidin-1-yl)-5-methylquinazolin-2-yl)methanesulfonamide]",<4.6,–,0.00501
"CCOc1nc(N2CCCCC2c2cc3nc(N4CCC4)cc(N4CCOCC4)n3n2)c2c(C)cccc2n1 (stereo not drawn) [P31, 4-(5-(azetidin-1-yl)-2-(1-(2-ethoxy-5-methylquinazolin-4-yl)piperidin-2-yl)pyrazolo[1,5-a]pyrimidin-7-yl)morpholine]",4.8,–,0.158
"Cc1cccc2nc(C(=O)NS(C)(=O)=O)nc(N3CCCCC3c3cc4nc(N5CCC5)cc(N5CCOCC5)n4n3)c12 (stereo not drawn) [P69, 4-(2-(5-(azetidin-1-yl)-7-morpholinopyrazolo[1,5-a]pyrimidin-2-yl)-piperidin-1-yl)-5-methyl-N-(methylsulfonyl)quinazoline-2-carboxamide]",<4,–,0.316
"Cc1cccc2ncnc(N3CCCCC3c3cc4nc(N5CCC5)cc(N5CCOCC5)n4n3)c12 (stereo not drawn) [P17, 4-(5-(azetidin-1-yl)-2-(1-(5-methylquinazolin-4-yl)piperidin-2-yl)-pyrazolo[1,5-a]pyrimidin-7-yl)morpholine]",4.4,–,0.00398
"Cc1cccc2ncnc(N3CCCCC3c3cc4nc(N5CCC5)cc(N5CCN(S(C)(=O)=O)CC5)n4n3)c12 (stereo not drawn) [P55, 4-(2-(5-(azetidin-1-yl)-7-(4-(methylsulfonyl)piperazin-1-yl)pyrazolo-[1,5-a]pyrimidin-2-yl)piperidin-1-yl)-5-methylquinazoline]",4.3,–,0.0158
"Cc1c(C2CC2)nc2cc(C3CCCCN3c3ncnc4cccc(C)c34)nn2c1N1CCOCC1 (stereo not drawn) [P47, 4-(5-cyclopropyl-6-methyl-2-(1-(5-methylquinazolin-4-yl)piperidin-2-yl)pyrazolo[1,5-a]pyrimidin-7-yl)morpholine]",4.6,–,0.501
"FC(F)(F)c1cccc2ncnc(N3CCCCC3c3cc4nc(N5CCC5)cc(N5CCOCC5)n4n3)c12 (stereo not drawn) [P62, 4-(5-(azetidin-1-yl)-2-(1-(5-(trifluoromethyl)quinazolin-4-yl)piperidin-2-yl)pyrazolo[1,5-a]pyrimidin-7-yl)morpholine]",4.3,–,0.1
"Clc1ccc2ncnc(N3CCCC[C@@H]3c3cc4nc(N5CCC5)cc(N5CCOCC5)n4n3)c2c1 [P3, (R)-4-(5-(azetidin-1-yl)-2-(1-(6-chloroquinazolin-4-yl)piperidin-2-yl)pyrazolo[1,5-a]pyrimidin-7-yl)morpholine]",4.6,–,3.98
"Cc1cn2nc([C@@H]3CCCCN3c3ncnc4cccc(C)c34)cc2nc1N1CC(O)C1 [P25, (S)-1-(6-methyl-2-(1-(5-methylquinazolin-4-yl)-piperidin-2-yl)pyrazolo[1,5-a]pyrimidin-5-yl)azetidin-3-ol]",<4.6,–,0.0316
"Cc1ccc2ncnc(N3CCCCC3c3cc4nc(N5CC(N)C5)c(C)cn4n3)c2c1 (stereo not drawn) [P13, 1-(6-methyl-2-(1-(6-methylquinazolin-4-yl)piperidin-2-yl)pyrazolo-[1,5-a]pyrimidin-5-yl)azetidin-3-amine]",4.3,–,0.398
"CCc1cccc2ncnc(N3CCCCC3c3cc4nc(N5CCC5)cc(N5CCOCC5)n4n3)c12 (stereo not drawn) [P58, 4-(5-(azetidin-1-yl)-2-(1-(5-ethylquinazolin-4-yl)piperidin-2-yl)-pyrazolo[1,5-a]pyrimidin-7-yl)morpholine]",<4,–,0.501
"COc1cccc2ncnc(N3CCCCC3c3cc4nc(N5CCC5)cc(N5CCOCC5)n4n3)c12 (stereo not drawn) [P74, 4-(5-(azetidin-1-yl)-2-(1-(5-methoxyquinazolin-4-yl)piperidin-2-yl)-pyrazolo[1,5-a]pyrimidin-7-yl)morpholine]",<4.6,–,0.0158
